Test results reported in paper PMC7179205, “An Improved Synthesis of Key Intermediate to the Formation of Selected Indolin-2-Ones Derivatives Incorporating Ultrasound and Deep Eutectic Solvent (DES) Blend of Techniques, for Some Biological Activities and Molecular Docking Studies” (Molecules, 2020).
Where two headings read alike, the source gives them in different places.

Columns and labels:
[1] = tested on: acetic acid-induced writhing; assay: acetic acid-induced writhing method (analgesic activity); assay type: in vivo, Swiss albino mice
Method: All the tested compounds and standard drugs are evaluated at 10 mg/kg oral dose.
The analgesic activity of the tested compounds was carried out by acetic acid-induced writhing method as given in the literature using Swiss albino mice of either sex (25–35 g). The writh were induced in the albino mice using an intraperitoneal injection of 1% acetic acid solution. The standard drug indomethacin and test compounds were evaluated at a concentration of 10 mg/kg of the body weight. The animals were divided into groups and each group consisted of six animals. One group was kept as control, one as standard, and other as test groups. To the control group, 0.1% CMC solution was administered p.o; to the standard group, the standard drug was administered orally, and to the test group, test compounds were administered orally. After 60 min of the 0.1% CMC solution/standard drug/tested compound administration, 0.1 ml of 1% (v/v) acetic acid solution in distilled water was injected intraperitoneally in all the mice in each group including the control group. The writhing (a contraction of the abdomen, turning of trunk, and extension of hind limbs) was counted after 5 min of acetic acid administration and were counted for a period of 15 min. The percentage of analgesic activity was calculated using the following formula.
(Mean wriths of control—mean wriths of std./test) / mean wriths of control) × 100

[2] = tested on: gastric tissue; assay: lipid peroxidation (MDA content of gastric tissue); assay type: in vivo
Method: Gastrointestinal (GI) ulceration, bleeding, and renal problems are common complications of NSAID’S consumption, which is directly related to lipid peroxidation. […] It was measured as the nmol of MDA/100 mg of gastric tissue. We have found the Lipid peroxidation value was maximum 6.71 ± 0.18 for indomethacin, whereas 3.89 ± 0.17, 4.08 ± 0.22, 4.26 ± 0.12, and 4.81 ± 0.13 for compounds 4i, 4c, 4f, and 4n, respectively.
The method adopted for lipid peroxidation is the same as Ohkawaet al. and the recent work of our researchers.

[3] = tested on: Rat Paw Edema; assay: carrageenan-induced hind paw edema method (anti-inflammatory activity); assay type: in vivo, Wistar albino rats; settings: for inhibition in vivo at 10 mg/kg: Rattus norvegicus, po, oral dose 10 mg/kg, mean ± SEM
Method: The anti-inflammatory activity of the synthesized compounds (4a–n) was evaluated by the carrageenan-induced paw edema method. An oral dose of 10 mg/kg was used for compounds and compared with the standard. Anti-inflammatory activity was accessed through percentage inhibition after 2 and 4 h (Table 1).
Compounds produced were assessed for their anti-inflammatory activity using the carrageenan-induced hind paw edema method. The anti-inflammatory activity was carried out using Wistar albino rats of either sex (150–220 g) using a Digital Plethysmometer (Model No. 7140, UGO BASILE). The edema was induced by using 1% carrageenan solution. Indomethacin was used as a standard drug. The anti-inflammatory activity of the standard drug and tested compounds was determined at a dose of 10 mg/kg body weight. The animals were divided into groups containing six animals each and the initial paw volume of each rat was noted by the NaCl displacement method. One group was kept as control, one as standard, and the rest of the groups of compounds were to be tested. To the control group, 1% CMC solution was administered p.o. To the standard group, the standard drug was administered orally. To the test group, tested compounds were administered orally. After 60 min of the 1% CMC solution/standard drug/test compound administration, 0.1 ml of 1% (w/v) carrageenan was injected in the plantar region of the hind limb (right) of all the rats in each group including the control group. The paw volume was again measured after the time interval of 2 and 4 h. Using the following formula, inflammation was calculated as percentage inhibition for the test and reference compounds
(Final foot volume of control—final foot volume of std./test) × 100 / final foot volume of control)

[4] = tested on: gastric mucosal damage; assay: acute ulcerogenic activity (severity index of gastric mucosal damage); assay type: in vivo, Wistar rats; settings: relative to indomethacin
Method: Four compounds, namely, 4c (Ar = 4-chlorophenyl), 4f (Ar = 2-chlorophenyl), 4i (Ar = 4-fluoro-3-chlorophenyl), and 4n (Ar = 2-methylphenyl) were selected for their ulcerogenic activity. This selection was based on their anti-inflammatory and analgesic activity. Compounds were evaluated at an oral dose of 30 mg/kg relative to 10 mg/kg indomethacin.
Acute ulcerogenic activity evaluation of the synthesized compounds was carried out according to the method described using Wistar rats of either sex (180–220 g). The animals were distributed into control, group, and test group. Each group consisted of six rats. All the rats fasted for 24 h with free access to water. To the control group, 1% CMC solution was administered p.o; to the standard group, indomethacin at a concentration of 20 mg/kg was administered orally; and to the test groups, tested compounds were administered orally at a concentration of 30 mg/kg. After the dose administration animals were kept for 17 h. After this, the animals were sacrificed for the appraisal of ulcerogenic assessment. The stomach was taken out from the animal body and washed with flushing water, then with a cotton swab wetted with saline (0.9%) and pinned on wax-coated try. The glandular portion of the stomach was cleaned again with saline to closely identify the presence of a type of ulcers or hemorrhage mark using a magnifying glass. The mucosal injury of the stomach was evaluated as per the following system: 0.5 = redness; 1 = spot ulcer; 1.5 = hemorrhage streak; 2 = ulcers < 3; 3 = ulcers > 3 < 5. The value obtained as a result of the mean score of the individual treated group—mean score of control is referred to as the severity index of the gastric mucosal damage.

[5] = relative to indomethacin = 1.00, 10 mg/kg

SMILES: Cc1ccccc1NCN1C(=O)C(=NNc2nc(-c3cc4ccccc4oc3=O)cs2)c2ccccc21 [Compound 4n, 3-{[4-(2-Oxo-2H-chromen-3-yl)-thiazol-2-yl]-hydrazono}-1-(o-tolylamino-methyl)-1,3-dihydro-indol-2-one]
- inhibition in vivo at 10 mg/kg ([1]; Mus musculus, oral dose 10 mg/kg, mean ± SEM, read-out: % Analgesic Activity): 69.14 ± 0.689%
- analgesic activity (in words) ([1]; oral dose 10 mg/kg, compared with standard indomethacin): very good analgesic activity
- Potency (analgesic) [1, 5]: 0.93
- Mean with ± SEM ([1]; writhes counted for 15 min, oral dose 10 mg/kg): 10.00 ± 0.3651
- MDA content (lipid peroxidation) ([2]; as repeated in Table 4, the values are: MDA content (lipid peroxidation)): 4.81 ± 0.13 nmol MDA/100 mg tissue
- Nanomoles of MDA Content ± SEM/ 100 mg Tissue ([2]; gastric tissue): 4.81 ± 0.13 nmol of MDA/100 mg of gastric tissue
- melting point: 237 to 239 °C
- inhibition in vivo at 10 mg/kg ([3]; 2 h, 2 h, read-out: % Age Inhibition of Rat Paw Edema, 2 H): 42.57 ± 0.213%
- inhibition in vivo at 10 mg/kg ([3]; 4 h, 4 h, read-out: % Age Inhibition of Rat Paw Edema, 4 H): 69.58 ± 0.133%
- Potency (anti-inflammatory) [3, 5]: 0.84
- severity index as share of the severity shown by the standard [4]: 20%
